# Where no end group is shown, it is not given here.
# Experiments:
# human THP-1 macrophages = test: Ex-vivo viability assay (MTT); type: cell-based
# Method: Ex-vivo viability assay: Cellular viability was assessed in human THP-1 macrophages by a colorimetric assay that makes use of thiazolyl blue tetrazolium bromide (MTT, Sigma). Cells were grown in Roswell Park Memorial Institute (RPMI) medium supplemented with 10% of heat inactivated fetal bovine serum (FBS), 1% L-glutamine and 1% penicillin-streptomycin. At 90% confluence, cells were centrifuged and diluted to a 1:5 ratio with complete RPMI. The monocytes were differentiated into macrophages using […] phorbol 12-myristate 13-acetate (PMA) before being seeded in a 96 well plate at a density of 1.0 x 10^4 cells/well and incubated in the presence of 5% CO2 for 72 hours at 37°C. Following this, cells were treated with increasing concentrations (0.05, 0.5, 5, 50, 500 µg/mL) of Pep_V2QV5D, magainin 2 or colistin before re-incubation for a further 24 hours. Post-incubation, 10 µL of MTT was added to each well at a final concentration of 500 µg/mL and incubated at 5% CO2 for 2 hours at 37°C. Formazan crystals were dissolved by the addition of 100 µL 100% DMSO and gentle shaking for 5 minutes at room temperature. The absorbance was measured at 570nm in a microplate spectrophotometer (Synergy H1, Biotek). Maximum toxicity was determined by cells incubated with 100% DMSO. Cell viability was calculated as a per cent of a control treated with PBNS. Three technical replicates were performed each day on three independent days.
# colSAB = test: Complete Elimination (CE) Drop Plate method; type: cell-based, A. baumannii; conditions: 90 minutes challenge in PBNS
# Method: (§1) Complete Elimination (CE) Drop Plate method: The CE method was primarily used as the antimicrobial susceptibility testing method for peptides used in this study. This was performed to avoid any interference of cations within the test media or buffer on the bioactivity of the peptides. This assay was performed by the method outlined by Chen et al. (2003) with minor modifications. Briefly, bacteria were grown overnight and sub-cultured to mid exponential phase. PBNS was used to make serial dilutions of bacteria in a 96 well plate. The appropriate volume of peptide was added to the wells at a final volume of 100 µL. As a control, PBNS was added to the bacterial suspensions without any peptide. The microtiter plate was incubated for 90 minutes at 37°C. Post challenge, 10 µL from each well was spotted onto appropriate media, depending on the strain. This was conducted in triplicate. The spots were left to dry, and the plates were incubated inverted. The first concentration to inhibit growth across all bacterial dilutions was determined as the CE concentration. Surviving colonies at sub-CE concentrations were counted after 18 hours incubation at 37°C. The reduction in colony forming units (CFU) was assessed relative to the untreated control and the log reduction induced by peptide treatment was calculated. All antimicrobial activity assays were performed in triplicate and on independent days.
# colRAB [1] = test: Complete Elimination (CE) Drop Plate method; type: cell-based, A. baumannii; conditions: 90 minutes challenge in PBNS, tested alone
# Method: as §1
# colRAB [2] = test: Synergy study, Fractional inhibitory concentration (FIC) by CE drop plate method; type: cell-based, A. baumannii; conditions: Pep_V2QV5D combined with colistin
# Method: Synergy studies were conducted using the above described CE drop plate method, however two peptides were mixed in a series of concentration combinations using PBNS as a diluent before bacterial inoculation and subsequent incubation. The highest concentration combination tested was the individual CE concentrations of Pep_V2QV5D and colistin, which were 12 µg/mL and 8 µg/mL, respectively. The amounts of each compound were then reduced sequentially in various proportions until the lowest possible active combination was identified.
# Traditionally, the FIC in a drug mixture is defined as the sum of the FICs (ΣFIC) and is calculated with the equation; ΣFIC = FICA + FICB = (CEcombA/CEA) + (CEcombB/CEB) [formula]
# Where CEA and CEB are the killing concentrations of individual peptides A and B, respectively, and CEcombA and CEcombB are the killing concentrations of the peptides in combination. In this work we used a similar concept and analysed the ratios of FICA and FICB. 'Synergy' was interpreted as a FIC ≤ 0.5, 'antagonism' as FIC > 4.0 and 'no interaction' as FIC > 0.5-4.0 [40].
# A. baumannii = test: In vitro resistance study (14 sequential passages at sub-inhibitory concentrations); type: cell-based; conditions: repeated exposure to sub-inhibitory concentrations
# Method: In vitro resistance study: This assay was conducted as outlined by Ge et al. 1999 with some modifications. Briefly, the in vitro passage study involved exposing bacteria diluted to […] in PBNS to Pep_V2QV5D at one-half of the previously established bactericidal concentration. After 90 minutes of incubation at 37°C, 10 µL was spotted in triplicate on MHB and incubated again overnight. Post-incubation, surviving colonies were collected, diluted in PBNS and adjusted to […] before repeated treatment with the sub-killing concentration of Pep_V2QV5D. The CE concentration was determined prior to the initiation of the study, after the 4th, 7th, 11th and 14th passages. If the CE concentration after the fourth passage was greater than the original killing concentration, then for passes 5, 6, and 7, the amount of peptide used during the bacterial challenge was increased to one-half of that new CE concentration. This was continued over a 14-day course. Magainin and colistin were used as controls for the in vitro resistance study. This assay was performed in independent duplicates.
# [3] = in humans; cited from earlier work
substance,measurement,setting,value
GIGKFLHSAKKFGKAFVGEIMNS [magainin 2],decrease in viability,"human THP-1 macrophages; 50 µg/mL, 24 hours, MTT",22%
VRGLAPKKSLWPFGGPFKSPFN [Pep_V2QV5D],toxic concentration compared to the concentration required for antimicrobial action (therapeutic index),human THP-1 macrophages,over 40 times
colistin,Complete Elimination values (CE concentration),colSAB,0.25 µg/mL
same,Complete Elimination values (CE concentration),colRAB [1],8 µg/mL
same,Complete Elimination values (CE concentration),colRAB [1]; listed as Colistin,8 ^(R) µg/mL
same,toxic concentration compared to the concentration required for antimicrobial action (therapeutic index),human THP-1 macrophages,6.8 times
same,CE concentration in combination,colRAB [2],1 µg/mL
same,fold change in the CE concentration over 14 days,A. baumannii,16 fold
vasopressin,half-life,[3],10 to 35 min
